Entries after “also recorded” stand apart in the source; their conditions may differ. Read-outs that look alike come from different tables or passages of the source. No end group written: not given here.

The source of these data is paper PMC8909127 (Frontiers in Microbiology, 2022).

Assay [1] concerns the target T1, MPP5 PDZ (Homo sapiens, UniProt Q8N3R9).
T1 construct: MPP5 (residues 238–336); GST (N, cleaved yes); made in house; host or cells: E. coli BL21 Star (DE3)
T1 sequence (Q8N3R9 238-336): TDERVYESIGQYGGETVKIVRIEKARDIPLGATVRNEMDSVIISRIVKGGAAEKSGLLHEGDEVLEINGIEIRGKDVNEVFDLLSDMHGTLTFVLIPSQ
In words: Microscale thermophoresis, E PBM peptide vs MPP5 PDZ. The assay is classed as binding. On the technique in general: Microscale thermophoresis detects binding through changes in fluorescence in a small temperature gradient.

Assay [2] concerns the target T2, MLLT4 PDZ (Homo sapiens, UniProt P55196).
T2 construct: MLLT4; P55196; 1002-1095; His-MBP (N, cleaved yes); made in house; host or cells: E. coli BL21 Star (DE3)
T2 sequence (P55196 1002-1095): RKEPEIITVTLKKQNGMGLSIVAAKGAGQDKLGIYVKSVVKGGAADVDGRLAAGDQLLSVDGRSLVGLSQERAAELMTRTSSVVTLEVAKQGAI
In words: Microscale thermophoresis, E PBM peptide vs MLLT4 PDZ. In kind it is binding. The note with it: MST.

The target in assay [3] is T3, LNX2 PDZ2 (Homo sapiens, UniProt Q8N448).
T3 construct: LNX2-2 (PDZ2; residues 334–426); His tag (N, cleaved yes); made in house; host or cells: E. coli BL21 Star (DE3)
T3 sequence (Q8N448 334-426): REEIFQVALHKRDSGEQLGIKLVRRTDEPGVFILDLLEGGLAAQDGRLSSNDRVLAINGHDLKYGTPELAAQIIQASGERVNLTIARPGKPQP
In words: Microscale thermophoresis, E PBM peptide vs LNX2 PDZ2. The assay is classed as binding.

The next assay addresses T4, ZO1 PDZ2 (Homo sapiens, UniProt Q07157).
T4 construct: ZO-1-2 (PDZ2; residues 184–264); His tag (N); made in house; host or cells: E. coli BL21 Star (DE3)
T4 sequence (Q07157 184-264): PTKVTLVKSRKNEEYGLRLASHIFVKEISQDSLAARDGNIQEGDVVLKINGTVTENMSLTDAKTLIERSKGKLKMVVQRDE
In words: Microscale thermophoresis, E PBM peptide vs ZO1 PDZ2. In kind it is binding.

Assay [4] concerns the target T5, PARD3 PDZ3 (Homo sapiens, UniProt Q8TEW0).
T5 construct: PARDD3-3 (PDZ3; residues 582–685); His tag (N, cleaved yes); made in house; host or cells: E. coli BL21 Star (DE3)
In words: Microscale thermophoresis, E PBM peptide vs PARD3 PDZ3. In kind it is binding. To be noted: MST.

In assay [5] the target is T6, PARD3 PDZ3 (human, UniProt Q8TEW0 582-685).
T6 construct: third PDZ domain of human PARD3, residues 582-685, numbering of the full-length human protein; […]; Labelled on amines with RED-NHS dye for MST; also called PARDD3-3; not shown: His tag, N-terminal, cleaved
In words: MST; […]; PBS tween 20 0.05%; room temperature; […]; duplicate. The note with it: both partners purified.

The target of assay [6] is T7, MLLT4 PDZ (human, UniProt P55196 1002-1095).
T7 construct: PDZ domain of human MLLT4 (Afadin); the residues named in the structure (1014-1022, 1071) fit 1002-1095; also called Afadin PDZ; not shown: His tag, N-terminal, cleaved; MBP, N-terminal, cleaved
T7 sequence (looked up): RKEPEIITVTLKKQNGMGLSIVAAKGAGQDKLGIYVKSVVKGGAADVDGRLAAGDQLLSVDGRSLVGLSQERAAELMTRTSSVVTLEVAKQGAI
Described as above. To be noted: both partners purified.

For a further assay, the target named is T8, ZO-1 PDZ2 (human, UniProt Q07157 184-264).
T8 construct: second PDZ domain of human ZO-1 (TJP1), residues 184-264, numbering of the full-length human protein; […]; Labelled on amines with RED-NHS dye for MST; also called TJP1 PDZ2; ZO-1-2
T8 sequence (looked up): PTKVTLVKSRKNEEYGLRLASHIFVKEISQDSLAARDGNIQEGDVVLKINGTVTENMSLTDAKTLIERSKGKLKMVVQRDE
Described as above. The note with it: both partners purified.

Assay [7] has as its target T9, MPP5 PDZ (human, UniProt Q8N3R9 238-336).
T9 construct: PDZ domain of human MPP5 (PALS1), residues 238-336, numbering of the full-length human protein; […]; Labelled on amines with RED-NHS dye for MST; also called PALS1 PDZ; not shown: GST, N-terminal, cleaved
T9 sequence (looked up): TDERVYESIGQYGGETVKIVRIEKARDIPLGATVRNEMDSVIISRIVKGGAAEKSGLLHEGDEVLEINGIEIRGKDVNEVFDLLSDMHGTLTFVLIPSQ
Described as above. The note with it: both partners purified.

For assay [8], the target named is T10, LNX2 PDZ2 (human, UniProt Q8N448 334-426).
T10 construct: second PDZ domain of human LNX2, residues 334-426, numbering of the full-length human protein; […]; Labelled on amines with RED-NHS dye for MST; also called LNX2-2; not shown: His tag, N-terminal, cleaved
T10 sequence (looked up): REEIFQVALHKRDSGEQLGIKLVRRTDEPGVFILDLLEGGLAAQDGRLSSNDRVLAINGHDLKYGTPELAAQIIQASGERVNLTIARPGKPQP
The assay is described as above. To be noted: both partners purified.

The mark [9] stands for this setting: Monolith NT.115, PDZ labeled RED-NHS, acetylated 12-mer peptide serially diluted, PBS tween 20 0.05%, room temperature, 80% LED, 20% MST power, MST time 30 s, averaged, ± standard deviation, two independent experiments.
Setting [10] is: either no interaction, or affinity outside the tested concentration range, read-out: Kd, outside the tested concentration range.

T5 sequence (Q8TEW0 582-685): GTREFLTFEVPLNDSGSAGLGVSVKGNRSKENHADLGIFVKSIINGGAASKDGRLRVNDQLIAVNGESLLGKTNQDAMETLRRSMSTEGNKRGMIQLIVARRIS
T6 sequence (Q8TEW0 582-685): as above

Take Ac-NLNSSRVLDLLV [SARS-CoV-2 P71L]: the “Effect of P71L on affinity vs WT” value is on record as “does not significantly impact the affinity” on MPP5 PDZ [1] and “considerably reduces” on ZO1 PDZ2. The Kd entry on MLLT4 PDZ [2] (setting [9]) is “not detectable in the tested concentration range; also recorded: No interaction detected”; at MLLT4 PDZ [2] (setting [10]) it was greater than 1000 µM; on PARD3 PDZ3 [4] (setting [9]), “not detectable in the tested concentration range; also recorded: No interaction detected”; at PARD3 PDZ3 [4] (setting [10]), greater than 1000 µM. The “Change of Kd compared with SARS-CoV-2 WT” value at LNX2 PDZ2 [3] is given as “almost six times lower”.

B1: C-terminal SARS-CoV-2-E PBM P71L peptide of the beta variant (peptide)
peptide: NLNSSRVLDLLV
notes: also called P71L PBM peptide; SARS-CoV-2 P71L
In the case of B1, the Kd is greater than 1000 µM with PARD3 PDZ3 [5]; greater than 1000 µM with MLLT4 PDZ [6]; 133 µM in the assay with ZO-1 PDZ2; 22 µM in the assay with MPP5 PDZ [7]; 47 µM in the assay with LNX2 PDZ2 [8].
